# Data as given in ChEMBL document CHEMBL1121373, “Synthesis and antifertility activity of 3,9-dihydroxy-5,6,6a alpha,6b beta,11,12,12a beta,12b alpha-octahydrodibenzo[a,g]biphenylene, a structural relative of diethylstilbestrol” (1980).
# Tests used:
# Rattus norvegicus = organism: Rattus norvegicus; assay: Effective dose for antifertility activity in rats; type: functional
# [1] = biological target: Estrogen receptor (Rattus norvegicus) (UniProt P06211+Q62986); assay: Estrogenic activity in uterotrophic assay in rats on oral administration relative to diethylstilbestrol; type: functional, organism-based
structure (smiles),measurement,setting,value
Oc1ccc2c(c1)CCC1C2C2CCc3cc(O)ccc3C12 (configuration not stated),ED100,Rattus norvegicus,100 µg/day/kg
same,Potency,[1],16%
